{"source": "patent US11712425B2", "about": "“Immunoregulatory role of 3-OH-kynurenamine and uses thereof” (ALBERT EINSTEIN COLLEGE OF MEDICINE, priority 2018, dated 2023)", "key": {"[1]": {"molecular_target": "T1, aromatic L-amino acid decarboxylase (AADC) (Homo sapiens, UniProt P20711)", "T1 construct": "full-length recombinant AADC was incubaled with 3-OH-kynurenine", "T1 sequence (P20711 1-480)": "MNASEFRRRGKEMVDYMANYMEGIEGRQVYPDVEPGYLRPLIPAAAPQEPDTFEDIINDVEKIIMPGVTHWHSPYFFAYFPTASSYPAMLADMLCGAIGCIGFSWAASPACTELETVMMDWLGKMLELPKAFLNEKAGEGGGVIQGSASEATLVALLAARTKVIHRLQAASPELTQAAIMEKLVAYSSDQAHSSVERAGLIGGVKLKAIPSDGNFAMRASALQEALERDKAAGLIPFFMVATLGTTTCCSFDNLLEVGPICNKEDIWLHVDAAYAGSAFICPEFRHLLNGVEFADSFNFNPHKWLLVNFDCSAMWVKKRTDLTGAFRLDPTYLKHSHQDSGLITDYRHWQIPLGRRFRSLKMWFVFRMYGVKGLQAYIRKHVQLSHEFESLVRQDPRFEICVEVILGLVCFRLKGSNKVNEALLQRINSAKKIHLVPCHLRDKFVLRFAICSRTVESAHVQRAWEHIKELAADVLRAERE", "test": "Decarboxylation by recombinant AADC", "format": "biochemical", "conditions": "enzyme plus PLP, monitored over 40 min, CO2 production", "experimental": "FIG. 2. […] Tryptophan, a natural substrate for aromatic L-amino acid decarboxylase (AADC) was incubated with the enzyme and the PLP catalyst. In a separate reaction 3-OH-kynurenine was incubated under the same experimental conditions. Reactions were monitored over a 40 min. period. […] One of a triplicate experiment is shown.\nAs a next step, to determine whether AADC is the natural enzyme processing 3-OH-L-kynurenine into 3-OH-kynurenamine, full-length recombinant AADC was incubaled with 3-OH-kynurenine and its conversion to 3-OH-kynurenamine was followed by detecting CO2 production due to decarboxylation."}, "[2]": {"molecular_target": "T2, AhR (Mus musculus, UniProt P30561)", "T2 construct": "mouse embryonic fibroblasts (MEFs) constitutively expressing AhR; endogenous in cells; host or cells: mouse embryonic fibroblasts (MEFs)", "T2 sequence (P30561 10-848)": "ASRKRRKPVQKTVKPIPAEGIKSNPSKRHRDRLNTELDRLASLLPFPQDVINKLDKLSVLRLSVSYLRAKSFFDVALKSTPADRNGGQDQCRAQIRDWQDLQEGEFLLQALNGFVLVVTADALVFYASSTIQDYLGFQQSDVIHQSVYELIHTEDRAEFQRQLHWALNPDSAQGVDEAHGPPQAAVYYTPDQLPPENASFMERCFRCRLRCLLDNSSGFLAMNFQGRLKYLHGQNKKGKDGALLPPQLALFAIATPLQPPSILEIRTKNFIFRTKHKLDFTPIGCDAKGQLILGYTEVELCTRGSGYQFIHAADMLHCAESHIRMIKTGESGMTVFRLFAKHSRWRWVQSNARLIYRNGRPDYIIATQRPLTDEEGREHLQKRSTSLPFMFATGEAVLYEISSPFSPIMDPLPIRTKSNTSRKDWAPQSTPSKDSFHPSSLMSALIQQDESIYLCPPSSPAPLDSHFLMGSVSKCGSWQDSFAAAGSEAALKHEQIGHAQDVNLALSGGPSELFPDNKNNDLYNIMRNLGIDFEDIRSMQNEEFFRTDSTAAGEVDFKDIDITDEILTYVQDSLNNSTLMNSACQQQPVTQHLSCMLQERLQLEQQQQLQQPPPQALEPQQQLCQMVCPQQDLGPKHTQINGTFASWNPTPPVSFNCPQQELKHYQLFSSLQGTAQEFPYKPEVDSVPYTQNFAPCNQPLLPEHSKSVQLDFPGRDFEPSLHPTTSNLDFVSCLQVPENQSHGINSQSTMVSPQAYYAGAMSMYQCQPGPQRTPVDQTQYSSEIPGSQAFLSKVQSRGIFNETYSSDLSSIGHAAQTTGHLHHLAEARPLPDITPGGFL", "test": "AhR luciferase reporter (Cyp1a1 promoter) in mouse embryonic fibroblasts", "format": "cell-based", "conditions": "for AhR activation (luciferase reporter): MEFs constitutively expressing AhR, stimulated 24 hours, different concentrations", "experimental": "Cells were either untreated or stimulated for 24 hours with different concentrations of 3-OH-kynurenamine and, as positive control, L-kynurenine, the known AhR agonist."}, "[3]": {"tested_on": "cDCs", "test": "Gene expression by RT-PCR in conditioned cDCs", "format": "cell-based, mouse", "conditions": "cDCs from spleens of C57BL/6 mice, 30 μM, after 2-6 hr", "experimental": "FIG. 3A-3D. 3-OH-kynurenamine confers immunosuppressive properties on DCs. […] Analysis (B) was calculated from 3 independent experiments. C and D) mouse cDCs (C) and human PBMCs (D). After incubation with 30 (C) or 2 (D) μM kynurenines, gene expression was evaluated by RT-PCR at 6− (C) or 6 and 18 (D) h. Data were normalized to GAPDH expression and presented relative to results in untreated cells (dotted line, one-fold). Mean fold induction+SD of triplicate experiments.\n(§1) Biological Role of 3-OH-Kynurenamine. Trp metabolites are known to exert several functions in immune cells. In dendritic cells, either cDCs or pDCs, incubation with L-kynurenine and/or 3-OH-anthranilic acid induces IDO1 expression and production of immunosuppressive TGF-β production. In turn, cDCs and pDCs conditioned with these Trp catabolites increase differentiation of T lymphocytes into Treg cells in vitro and, when administered in vivo, induce antigen-specific T cell tolerance."}, "[4]": {"tested_on": "antigen-specific delayed-type hypersensitivity", "test": "In vivo suppressive activity of conditioned DCs (delayed-type hypersensitivity, footpad skin test)", "design": "species or system mice", "conditions": "cDCs conditioned 24 hr with 30 μM, pulsed with IGRP peptide; skin reactivity at 15 days", "experimental": "FIG. 4A-4B. […] B) In vivo suppressive activity of CD8^− DCs, pulsed with the IGRP peptide (an autoantigen in autoimmune diabetes), in combination with a minority fraction (5%) of CD8^− DCs either untreated (Unt) or pretreated with 30 μM 3-OH-kynurenamine for 24 h and pulsed with the same peptide prior in vivo administration; analysis of skin reactivity of recipient mice to the eliciting peptide at 15 days is presented as change in footpad weight. ***P<0.001 (mean weight of experimental versus control footpads, i.e., injected with vehicle alone). Results are presented as fold induction±SD of triplicate experiments.\nas §1"}, "[5]": {"tested_on": "dendritic cells", "test": "Quantitative proteomics of dendritic cells treated with 3-OH-kynurenamine", "format": "cell-based"}, "[6]": {"tested_on": "NFκB pathway", "test": "Western blot of NFκB pathway in DCs", "format": "cell-based", "conditions": "3 independent experiments"}, "[7]": {"tested_on": "Psoriasis model", "test": "Imiquimod-induced psoriasis model", "format": "in vivo, mice", "conditions": "Imiquimod 7 days, 50 mg/kg ip for 7 days", "experimental": "FIG. 5A-5B. […] Some of the mice were also treated with 3-OH-Kynurenamine (50 mg/kg ip; for 7 days). Controls are mice that were shaved but left untreated; Imiquimod and Imiquimod plus 3-OH-Kynurenamine refers to the specific treatments. After 7 days mice were sacrificed and skin processed for H&E staining.\nas §1"}, "[8]": {"tested_on": "nephrotoxic nephritis (NTN)", "test": "Nephrotoxic nephritis (NTN) model", "format": "in vivo, 129/Sv mice", "conditions": "daily intraperitoneal 50 mg/kg from day +4 until day +12", "experimental": "FIG. 6A-6F. […] Ten week old female 129/Sv mice were immunized intraperitoneally with rabbit IgG in complete Freund's adjuvant (day 0). Five days later, mice received an intravenous injection of 90 ul of pre-formed rabbit anti-mouse glomerular basement membrane antibodies (N-Ab) or PBS. Starting at day +4, mice started receiving daily intraperitoneal injections of 50 mg/kg of 3-OH-kynurenamine (n=6) or vehicle control (n=8) until sacrifice on day +12. A) Proteinuria levels determined at sacrifice by uristix. B) % of mice in each group at sacrifice that reached the predetermined cut-off value for severe proteinuria of >300 mg/dl. C) Blood Urea Nitrogen levels determined at sacrifice. D) % of mice in each group that reach pre-specified humane end points for sacrifice (>300 mg/dl on two consecutive days, a single value of >2000 mg/dl, or poor general well being. E and F) All groups of mice developed similar titers of E) antirabbit injected Ab and F) anti-GBM Ab. […] (*p<0.05, **p<0.01).\nBiological Role of 3-OH-Kynurenamine. Trp metabolites are known to exert several functions in immune cells. In dendritic cells, either cDCs or pDCs, incubation with L-kynurenine and/or 3-OH-anthranilic acid induces IDO1 expression and production of immunosuppressive TGF-β production. […]"}}, "note": "Entries after “also recorded” stand apart in the source; their conditions may differ."}
{"smiles": "N[C@@H](Cc1c[nH]c2ccccc12)C(=O)O", "note": "[Trp, Tryptophan]", "values": [{"measurement": "conversion (decarboxylation) by AADC", "setting": "[1]", "value": "converted to Tryptamine"}]}
{"smiles": "Nc1ccccc1C(=O)C[C@H](N)C(=O)O", "note": "[L-kynurenine, reference compound]", "values": [{"measurement": "AhR activation (luciferase reporter)", "setting": "[2]", "value": "activated AhR in a concentration-dependent manner"}]}
{"smiles": "Nc1c(O)cccc1C(=O)C[C@H](N)C(=O)O", "note": "[3-OH-kynurenine]", "values": [{"measurement": "conversion (decarboxylation) by AADC", "setting": "[1]", "value": "converted to 3-OH-kynurenamine; also recorded: AADC was capable of inducing 3-OH-kynurenine decarboxylation"}]}
{"smiles": "NCCC(=O)c1cccc(O)c1N", "note": "[3-OH-kynurenamine]", "values": [{"measurement": "AhR activation (luciferase reporter)", "setting": "[2]", "value": "induced a concentration-dependent AhR activation"}, {"measurement": "AhR activation relative to L-kynurenine", "setting": "[2]; MEFs, 24 hours", "value": "around 6.5 times"}, {"measurement": "Tgfbl transcripts", "setting": "[3]", "value": "significantly upregulates"}, {"measurement": "idol transcripts", "setting": "[3]", "value": "significantly upregulates"}, {"measurement": "antigen-specific delayed-type hypersensitivity induced by immunostimulatory cDCs", "setting": "[4]", "value": "suppressed antigen-specific delayed-type hypersensitivity"}, {"measurement": "NF-κB inhibitor IKB level (quantitative proteomic)", "setting": "[5]; cDC, 20 μM, 24 hr, IFNγ/3-OH-kynurenamine vs IFNγ control", "value": "up-regulation of the NF-κB inhibitor IKB"}, {"measurement": "MS1 quantification of immunological relevant proteins", "setting": "[5]; dendritic cells, media supplemented with 3-OH-Kynurenamine vs media alone", "value": "down-regulated"}, {"measurement": "NFκB pathway (Western blot, densitometry)", "setting": "[6]", "value": "downregulation of the NFκB pathway"}, {"measurement": "skin inflammation / clinical and histological manifestation of psoriasis", "setting": "[7]; 50 mg/kg", "value": "decreases clinical and histological manifestation of psoriasis; also recorded: decrease skin inflammation"}, {"measurement": "epidermis hyperplasia", "setting": "[7]; H&E staining", "value": "statistically significant lower levels"}, {"measurement": "ortho and parakeratosis", "setting": "[7]; H&E staining", "value": "statistically significant lower levels"}, {"measurement": "rete ridges formation", "setting": "[7]; H&E staining", "value": "statistically significant lower levels"}, {"measurement": "nephrotoxic nephritis / kidney damage (proteinuria, overall animal survival)", "setting": "[8]", "value": "attenuates nephrotoxic nephritis (NTN)"}, {"measurement": "nephrotoxic nephritis / kidney damage (proteinuria, overall animal survival)", "setting": "[8]; listed as 3-OH-Kynurenamine", "value": "decrease"}]}
